Results reported in article PMC9586283 (Proceedings of the National Academy of Sciences of the …, 2022).

Tests used:
[1] = tested on: end-blocked, mispair-containing DNA; type: binding; settings: 20 nM Msh2-Msh6, 40 nM Mlh1-Pms1, 250 μM ATP, 25 °C, 20 μL/min, 236-bp DNA, Biacore T100
3′ AflIII CC substrate = assay: Reconstituted Exo1- and Mlh1-Pms1-dependent MMR reaction in vitro; type: biochemical
Pms1 = assay: Interaction of mutant Mlh1 with Pms1 during protein purification; type: binding, S. cerevisiae
supercoiled DNA plasmid = type: biochemical
wild-type Mlh1-Pms1 = assay: Mlh1-Pms1 endonuclease assay; type: biochemical, S. cerevisiae; settings: 7.5 nM PCNA, 30 nM RFC-Δ1N, 35 nM Mlh1-Pms1, 1 mM MnSO4, 20 mM Tris (pH 7.5), 0.5 mM ATP, 100 ng supercoiled pRS425, 30 °C, 30 min, agarose gel

Mlh1(RADA)-Pms1
recruitment by Msh2-Msh6, increase in response units [1]: robust increase in the response units
MMR in vitro (in words) (3′ AflIII CC substrate): defective for MMR
ability to interact with Pms1 (Pms1): did not observe any defects in the ability of Mlh1(RADA) to interact with Pms1
nicking activity relative to wild-type Mlh1-Pms1 (supercoiled DNA plasmid; % of the nicking activity of the wild-type Mlh1-Pms1 protein, RFC-Δ1N and PCNA, ATP, 35 nM Mlh1-Pms1, 30 °C, 30 min, in triplicate): ~10%
endonuclease activity (in words) (supercoiled DNA plasmid; in vitro, with PCNA, RFC-Δ1N and ATP): defective for MMR and endonuclease activity in vitro

KAKRQENKLVRIDASQAKITSFLSS [wild-type peptide]
Mlh1-Pms1 endonuclease activity (wild-type Mlh1-Pms1; peptide-to-heterodimer molar ratio of 250:1): ~70%
Mlh1-Pms1 endonuclease activity (wild-type Mlh1-Pms1; peptide-to-heterodimer molar ratio of 1,000:1): ~50%

Mlh1-Pms1: wild-type S. cerevisiae Mlh1-Pms1 endonuclease heterodimer
recruitment by Msh2-Msh6, increase in response units [1]: robust increase in the response units
